Legend:
[1] = test system: HORSS: barley, including spring and winter (Hordeum vulgare); experiment: Post-emergent Test III, herbicidal activity in wheat and barley; format: in vivo; settings: for pest or weed control at 35 g/ha / pest or weed control at 70 g/ha / pest or weed control at 140 g/ha: Hordeum vulgare, post-emergence, 504 h, read-out: Visual Growth Reduction (%) 21 Days After Application HORSS; for pest or weed control at 35 g/ha: 35 g ai/ha; for pest or weed control at 70 g/ha: 70 g ai/ha; for pest or weed control at 140 g/ha: 140 g ai/ha; for GR20 HORSS: probit analysis, dose for growth reduction of 20 percent, 21 days after application, crop
How it was run: (§1)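 GR20, GR50, GR80 and GR90 come from probit analysis of visual injury scores (0 = none, 100 = complete kill) taken 21 d after treatment. Foliar application was by track sprayer delivering 187 L/ha at five rates, from high down to 1/16×, onto greenhouse plants at the 2–3 leaf stage, with solvent-blank controls.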

[2] = test system: MATSS: scented mayweed (Matricaria chamomilla), pineappleweed (Matricaria matricarioides); experiment: as above; format: in vivo; settings: for pest or weed control at 35 g/ha / pest or weed control at 70 g/ha / pest or weed control at 140 g/ha: Matricaria chamomilla, post-emergence, 504 h, read-out: Visual Growth Reduction (%) 21 Days After Application MATSS; for pest or weed control at 35 g/ha: 35 g ai/ha; for pest or weed control at 70 g/ha: 70 g ai/ha; for pest or weed control at 140 g/ha: 140 g ai/ha; for GR50 MATSS / GR80 MATSS: probit analysis, 21 days after application; for GR50 MATSS: dose for growth reduction of 50 percent; for GR80 MATSS: dose for growth reduction of 80 percent
How it was run: as §1

[3] = test system: KCHSC: kochia (Kochia scoparia); experiment: as above; format: in vivo; settings: for pest or weed control at 35 g/ha / pest or weed control at 70 g/ha / pest or weed control at 140 g/ha: Bassia scoparia, post-emergence, 504 h, read-out: Visual Growth Reduction (%) 21 Days After Application KCHSC; for pest or weed control at 35 g/ha: 35 g ai/ha; for pest or weed control at 70 g/ha: 70 g ai/ha; for pest or weed control at 140 g/ha: 140 g ai/ha; for GR50 KCHSC / GR80 KCHSC: probit analysis, 21 days after application; for GR50 KCHSC: dose for growth reduction of 50 percent; for GR80 KCHSC: dose for growth reduction of 80 percent
How it was run: as §1

[4] = test system: LOLSS: ryegrass including, Italian ryegrass (Lolium multiflorum), rigid ryegrass (Lolium rigidum), annual ryegrass (Lolium multiflorum subsp. Gaudini); experiment: as above; format: in vivo; settings: probit analysis, 21 days after application; for GR50 LOLSS: dose for growth reduction of 50 percent; for GR80 LOLSS: dose for growth reduction of 80 percent
How it was run: as §1

[5] = as above; format: in vivo, Lolium multiflorum, Lolium rigidum; settings: Lolium multiflorum, post-emergence, 504 h, read-out: Visual Growth Reduction (%) 21 Days After Application LOLSS; for pest or weed control at 35 g/ha: 35 g ai/ha; for pest or weed control at 70 g/ha: 70 g ai/ha; for pest or weed control at 140 g/ha: 140 g ai/ha
How it was run: as §1

[6] = test system: TRZSS: wheat, including spring and winter (Triticum aestivum); experiment: as above; format: in vivo; settings: for pest or weed control at 35 g/ha / pest or weed control at 70 g/ha / pest or weed control at 140 g/ha: Triticum aestivum, post-emergence, 504 h, read-out: Visual Growth Reduction (%) 21 Days After Application TRZSS; for pest or weed control at 35 g/ha: 35 g ai/ha; for pest or weed control at 70 g/ha: 70 g ai/ha; for pest or weed control at 140 g/ha: 140 g ai/ha; for GR20 TRZSS: probit analysis, dose for growth reduction of 20 percent, 21 days after application, crop
How it was run: as §1

[7] = test system: SETVI: green foxtail (Setaria viridis); experiment: as above; format: in vivo; settings: for pest or weed control at 35 g/ha / pest or weed control at 70 g/ha / pest or weed control at 140 g/ha: Setaria viridis, post-emergence, 504 h, read-out: Visual Growth Reduction (%) 21 Days After Application SETVI; for pest or weed control at 35 g/ha: 35 g ai/ha; for pest or weed control at 70 g/ha: 70 g ai/ha; for pest or weed control at 140 g/ha: 140 g ai/ha; for GR50 SETVI / GR80 SETVI: probit analysis, 21 days after application; for GR50 SETVI: dose for growth reduction of 50 percent; for GR80 SETVI: dose for growth reduction of 80 percent
How it was run: as §1

[8] = test system: APESV: bentgrass (Apera spica-venti); experiment: as above; format: in vivo; settings: for pest or weed control at 35 g/ha / pest or weed control at 70 g/ha / pest or weed control at 140 g/ha: Apera spica-venti, post-emergence, 504 h, read-out: Visual Growth Reduction (%) 21 Days After Application APESV; for pest or weed control at 35 g/ha: 35 g ai/ha; for pest or weed control at 70 g/ha: 70 g ai/ha; for pest or weed control at 140 g/ha: 140 g ai/ha; for GR50 APESV / GR80 APESV: probit analysis, 21 days after application; for GR50 APESV: dose for growth reduction of 50 percent; for GR80 APESV: dose for growth reduction of 80 percent
How it was run: as §1

Row | SMILES | pest or weed control at 35 g/ha [1] | pest or weed control at 70 g/ha [1] | pest or weed control at 140 g/ha [1] | GR20 HORSS [1] | pest or weed control at 35 g/ha [2] | pest or weed control at 70 g/ha [2] | pest or weed control at 140 g/ha [2] | GR50 MATSS [2] | GR80 MATSS [2] | pest or weed control at 35 g/ha [3] | pest or weed control at 70 g/ha [3] | pest or weed control at 140 g/ha [3] | GR50 KCHSC [3] | GR80 KCHSC [3] | GR50 LOLSS [4] | GR80 LOLSS [4] | pest or weed control at 35 g/ha [5] | pest or weed control at 70 g/ha [5] | pest or weed control at 140 g/ha [5] | pest or weed control at 35 g/ha [6] | also measured
1 | Nc1c(F)c(-c2ccc(OC(F)F)cc2)nc(C(=O)O)c1Cl [Compound 143] | 60 to 74% | 75 to 84% | 85 to 94% | 2 g ai/ha | 0 to 29% | 60 to 74% | 60 to 74% | 67 g ai/ha | >140 g ai/ha | 30 to 44% | 30 to 44% | 45 to 59% | >140 g ai/ha | >140 g ai/ha | 116 g ai/ha | >140 g ai/ha | 0 to 29% | 30 to 44% | 45 to 59% | 60 to 74% | pest or weed control at 70 g/ha [6]: 75 to 84%; pest or weed control at 140 g/ha [6]: 75 to 84%; GR20 TRZSS [6]: 0 g ai/ha; pest or weed control at 35 g/ha [7]: 45 to 59%; pest or weed control at 70 g/ha [7]: 45 to 59%; pest or weed control at 140 g/ha [7]: 60 to 74%; GR50 SETVI [7]: 52 g ai/ha; GR80 SETVI [7]: >140 g ai/ha; pest or weed control at 35 g/ha [8]: 60 to 74%; pest or weed control at 70 g/ha [8]: 60 to 74%; pest or weed control at 140 g/ha [8]: 75 to 84%; GR50 APESV [8]: 31 g ai/ha; GR80 APESV [8]: 129 g ai/ha
2 | Nc1c(F)c(-c2ccc(Br)cc2)nc(C(=O)O)c1Cl [Compound 20] | 85 to 94% | 95 to 100% | 95 to 100% | 1 g ai/ha | 95 to 100% | 95 to 100% | 95 to 100% | 1 g ai/ha | 1 g ai/ha | 95 to 100% | 95 to 100% | 95 to 100% | 2 g ai/ha | 5 g ai/ha | 25 g ai/ha | >140 g ai/ha | 45 to 59% | 60 to 74% | 60 to 74% | 85 to 94% | pest or weed control at 70 g/ha [6]: 85 to 94%; pest or weed control at 140 g/ha [6]: 85 to 94%; GR20 TRZSS [6]: 1 g ai/ha; pest or weed control at 35 g/ha [7]: 95 to 100%; pest or weed control at 70 g/ha [7]: 95 to 100%; pest or weed control at 140 g/ha [7]: 95 to 100%; GR50 SETVI [7]: 4 g ai/ha; GR80 SETVI [7]: 10 g ai/ha; pest or weed control at 35 g/ha [8]: 85 to 94%; pest or weed control at 70 g/ha [8]: 85 to 94%; pest or weed control at 140 g/ha [8]: 85 to 94%; GR50 APESV [8]: 2 g ai/ha; GR80 APESV [8]: 12 g ai/ha
3 | COC(=O)c1nc(-c2ccc(C#N)cc2)c(F)c(N)c1Cl [Compound 142] | 0 to 29% | 0 to 29% | 0 to 29% | 57 g ai/ha | 0 to 29% | 0 to 29% | 30 to 44% | >140 g ai/ha | >140 g ai/ha | 45 to 59% | 60 to 74% | 60 to 74% | 17 g ai/ha | >140 g ai/ha | >140 g ai/ha | >140 g ai/ha | 0 to 29% | 0 to 29% | 0 to 29% | 0 to 29% | pest or weed control at 70 g/ha [6]: 0 to 29%; pest or weed control at 140 g/ha [6]: 45 to 59%; GR20 TRZSS [6]: >140 g ai/ha; pest or weed control at 35 g/ha [7]: 0 to 29%; pest or weed control at 70 g/ha [7]: 0 to 29%; pest or weed control at 140 g/ha [7]: 0 to 29%; GR50 SETVI [7]: >140 g ai/ha; GR80 SETVI [7]: >140 g ai/ha; pest or weed control at 35 g/ha [8]: 0 to 29%; pest or weed control at 70 g/ha [8]: 0 to 29%; pest or weed control at 140 g/ha [8]: 0 to 29%; GR50 APESV [8]: >140 g ai/ha; GR80 APESV [8]: >140 g ai/ha
